These results are taken from US9131722B2, “Composition comprising the extract of Actinidia arguta and related species for the prevention and treatment of allergic disease and non-allergic inflammatory disease” (VIROMED CO., LTD., priority 2002, dated 2015).

Structures are written as SMILES.

Assay [1] relates to mice peritoneal mast cells. The assay is described as follows: Inhibition of histamine release from mice peritoneal mast cells. The format is cell-based. The settings on record: Mus musculus, Mast cell, 0.5 h; anti-DNP24-BSA IgE sensitized, DNP24-BSA 20 ng/ml 30 min; extract 100 μg/ml, Cromolyn 10^−4 M. On the procedure: Each mouse was anesthetized with ether, and injected with 20 ml of Tyrode buffer B (NaCl, glucose, NaHCO3, KCl, NaH2PO4) containing 0.1% gelatin into the peritoneal cavity; then the abdomen was gently massaged for about 90 seconds. The peritoneal cavity was carefully opened, and the fluid containing peritoneal cells was aspirated by pasteur pipette. The peritoneal cells were then sedimented at 150×g for 10 min. at room temperature and resuspended in Tyrode buffer B. Mast cells were separated from the major components of rat peritoneal cells as described in the literature (Yurt et al., J Exp Med., 1; 146(5), pp 1405-19, 1977). Peritoneal cells suspended in 1 ml of Tyrode buffer B were layered onto 2 ml of 0.225 g/ml metrizamide (density 1.120 g/ml) and centrifuged at room temperature for 15 min at 400×g. […] Mast cells were stimulated with 20 ng/ml of DNP24-BSA as an antigen for 30 min., and histamine released into the medium was measured by […]). Inhibition of histamine release was calculated as following empirical formula 1; Percent inhibition=100×(A-B)/(A-C) [Empirical Formula 1] • A: Stimulated level (Histamine release with IgE-stimulation). • B: Suppressed level (Histamine release with IgE-stimulation and drug treatment). • C: Basal level (Histamine release without IgE-stimulation).

Another assay concerns U266B1 cell line. The assay is described as follows: Inhibition of IgE production in LPS-stimulated U266B1 cell line (ELISA). The format is cell-based, human. The conditions noted are these: 7 days.
In assay [2] the test system is splenocytes of ovalbumin-sensitized mouse. The assay is described as follows: Ovalbumin-sensitized mouse model: expression of cytokines by splenocytes re-stimulated with ovalbumin (ELISA). The format is in vivo. The conditions noted are these: splenocytes of OVA-stimulated mouse, ovalbumin 100 μg/ml, 3 days. On the procedure:
The ovalbumin-sensitized mouse model is commonly used as animal model of allergy. Female BALB/c mice, aged 6 weeks (Seoul national university animal experimental center) were adapted to the environment for 7 days.
On the 25th day, mice were sacrificed and blood serum and spleen was collected therefrom.
Each prepared splenocytes was pooled and homogenized under an aseptic condition.
Splenocytes prepared as above were inoculated in 24-well plate (5×10^6 cell/ml/well), treated with 100 μg/ml of ovalbumin, and incubated at 37° C. under an atmosphere containing 5% CO2 for 3 days. After cultivation was finished, a culture solution was gathered and then the concentration of cytokines (IL-4, IL-5, IL-12 and interferon-γ) related to allergy were measured by commercial ELISA kits.

For assay [3], the system named is ovalbumin-sensitized mouse. Briefly: Ovalbumin-sensitized mouse model: ovalbumin-specific IgE, IgG1, IgG2a, IgG2b in serum (ELISA). It counts as in vivo. The conditions noted are these: BALB/c, oral 11 days, extract 300 μg/mouse/day, dexamethasone 10 μg/mouse/day. On the procedure: The ovalbumin-sensitized mouse model is commonly used as animal model of allergy. Female BALB/c mice, aged 6 weeks (Seoul national university animal experimental center) were adapted to the environment for 7 days. At the time of 7 weeks after birth, 100 μl of emulsion, mixed 25 μg of ovalbumin (chicken egg albumin, crude grade V, Sigma Co., Ltd.) with 2.25 mg of aluminum hydroxide (ImujectAlum, Pierce Co., Ltd.) was injected into mouse peritoneal cavity and 14 days after, it was injected once more for boosting.
And then 30 mice were divided into 3 groups and each group was orally administered with the hardy kiwifruit water extract of Example 1-1 (300 μg/mouse/day), dexamethasone (10 μg/mouse/day), or drinking water (100 μg/mouse/day) for 11 days, respectively. On the 25th day, mice were sacrificed and blood serum and spleen was collected therefrom.
In serum collected in Example 2-1, the serum levels of ovalbumin-specific IgE, IgG1, IgG2a and IgG2b were measured by ELISA kits (PharMingen Co., Ltd).

Assay [4] has as its system splenocytes of Nc/Nga mouse. Briefly: Nc/Nga mouse model: Th1/Th2 cytokine production by ConA-stimulated splenocytes. The format is in vivo. The settings on record: ConA 1 μg/ml, 3 days. The protocol:
For experiment, 15 of Nc/Nga mice (7 weeks after birth, female) were divided into 3 groups and adapted to new circumstance for 1 week. […] To compare the progress of dermatitis symptom, the scratching frequency of mouse (the time spent scratching during 20 min-observation) was measured when mice is grown at the age of 12 and 14 weeks. 16 weeks old mouse was sacrificed and the quantity of IgE, IgG1 and IgG2a level in serum were measured by ELISA method. Also, to compare the production of Th1/Th2 cytokines, splenocyte was prepared by conventional method from each mouse, transferred into 24-well plate (5×10^6 cells/ml/well) and incubated with ConA (1 μg/ml) for 3 days and then the levels of IL-4, IL-5, IL-12, and Interferon-γ were measured by ELISA method.

Another assay deals with Nc/Nga mouse. Briefly: Nc/Nga mouse model of atopic dermatitis: scratching and serum IgE, IgG1, IgG2a. The format is in vivo. The settings on record: oral 8 weeks, extract 300 μg/mouse/day, dexamethasone 10 μg/mouse/day, 16 weeks old. The protocol:
To confirm anti-allergic effect of hardy kiwifruit extract in animals, Nc/Nga mouse model that has been widely used as an animal model for human atopic dermatitis study was employed.
For experiment, 15 of Nc/Nga mice (7 weeks after birth, female) were divided into 3 groups and adapted to new circumstance for 1 week. Since 8 weeks after birth, the hardy kiwifruit extract (300 μg/mouse/day) prepared in example 1-1 as a treatment group had been orally administered and dexamethasone (10 μg/mouse/day) or drinking water (100 μg/mouse/day) as control groups had been orally administered for 8 weeks. To compare the progress of dermatitis symptom, the scratching frequency of mouse (the time spent scratching during 20 min-observation) was measured when mice is grown at the age of 12 and 14 weeks. 16 weeks old mouse was sacrificed and the quantity of IgE, IgG1 and IgG2a level in serum were measured by ELISA method. Also, to compare the production of Th1/Th2 cytokines, splenocyte was prepared by conventional method from each mouse, transferred into 24-well plate (5×10^6 cells/ml/well) and incubated with ConA (1 μg/ml) for 3 days and then the levels of IL-4, IL-5, IL-12, and Interferon-γ were measured by ELISA method.

In assay [5] the test system is edema induced by arachidonic acid in the ears of mice. Briefly: Edema induced by arachidonic acid in the ears of mice. It counts as in vivo. The conditions noted are these: BALB/c, p.o. 1 hour before arachidonic acid, extract 200 mg/kg, indomethacin 10 mg/kg. The protocol:
15 mice (8 week old male BALB/c) were fasted for 18 hours with free access to water and divided into 3 groups. Inflammation was induced by topical application of arachidonic acid (0.5 mg/20 μl acetone) to the right ear of each mouse. The left ear was used as a negative control and received the vehicle (20 μl acetone). The hardy kiwifruit extract (200 mg/kg in water) was administered p.o. 1 hour prior to arachidonic acid application. The positive control group received indomethacin (10 mg/kg, p.o.) 1 hour before arachidonic acid application. Inflammation was followed for 1 hour and thereafter the animals were sacrificed. A section of 6 mm diameter disc from each ear was obtained and weighed. The edema index was assessed using the increase in the weight of the treated right ear punch biopsy over that of the untreated left ear.

Experimental for U266B1 cell line: To confirm the inhibitory effect of hardy kiwifruit extraction on IgE production, U266B1 cell (lymphoblastoma cell line) was used. U266B1 is cell line of human B cell, which produces IgE.
U266B1 cells (American Type Culture Collection, Manassas, Va.) was cultured at 37° C. under 5% CO2 circumstances in 24-well culture plate containing RPMI-1640 medium (15% FBS, 2 mM L-glutamine, 10 mM HEPES, 1 mM sodium pyruvate, 50 μg streptomycin and 100 U/ml penicillin). […] Control was treated with 2 μM dexamethasone or medium (RPMI-1640). After treatment, cells were cultured for 7 days and IgE concentration of medium was measured by ELISA kit (PharMingen; San Diego, Calif.).
Silica gel column chromatography fraction [1], [2], [3] and [4] were treated to U266B1 cell line (at 10 μg/ml).

Take `O=C(O)c1cc(=O)c2c(OCC(O)COc3cccc4oc(C(=O)O)cc(=O)c34)cccc2o1` [Cromolyn]: in assay [1], the inhibition at 100 µM stood at 52 ± 13%.
On to `C[C@@H]1C[C@H]2[C@@H]3CCC4=CC(=O)C=C[C@]4(C)[C@@]3(F)[C@@H](O)C[C@]2(C)[C@@]1(O)C(=O)CO` [Dexamethasone, dexamethasone], for which the “IgE (IU/ml)” value in the assay on U266B1 cell line (U266B1, LPS 2 μg/ml, extracts 100 μg/ml, dexamethasone 2 μM, LPS+medium 392.9, no LPS 187.8) came out at 203.6 ± 30.9 IU/ml; in the assay with U266B1 cell line (U266B1, LPS stimulation, fractions at 30 μg/ml, LPS+medium 212.5, no LPS 117.4) it was 138.9 ± 2.1 IU/ml; with U266B1 cell line (U266B1, LPS stimulation, silica gel fractions at 10 μg/ml, LPS+medium 540.4, no LPS 379.7) it was 277.6 ± 12.4 IU/ml. The IL-4 worked out at 23.2 ± 8.7 pg/mL in assay [2] (drinking water 159.5, normal mouse 21.6) and 42.7 ± 19.4 pg/mL in assay [4] (drinking water 151.9). In addition, the IL-12 amounted to 297.7 ± 16.4 pg/mL in assay [2] (drinking water 906.2, normal mouse 1626.0) and 201.2 ± 12.1 pg/mL in assay [4] (drinking water 1925.7). For the same compound, the Interferon-γ in assay [2] (drinking water 1016.0, normal mouse 14.1) was 470.5 ± 38.6 pg/mL; in assay [4] (drinking water 10407.5), 10096.4 ± 192.4 pg/mL. Further, the IL-5 in assay [2] (drinking water 2573.6, normal mouse 0.5) was 884.1 ± 80.7 pg/mL; in assay [4] (drinking water 778.3), 646.5 ± 51.7 pg/mL. Further, the ovalbumin-specific IgG2b in serum in assay [3] (normal 1.0, drinking water 1.4, the values are: IgG2b relative to normal mice) was found to be 1.2 ± 0.1. Besides, in assay [3] (normal 1.0, drinking water 2.1, the values are: IgG2a relative to normal mice), the ovalbumin-specific IgG2a in serum was found to be 1.9 ± 0.4. Also, in assay [3] (normal 1.0, drinking water 5.1, the values are: IgG1 relative to normal mice), the ovalbumin-specific IgG1 in serum came out at 3.1 ± 0.3. The ovalbumin-specific IgE in serum in assay [3] (normal 1.0, drinking water 7.6, the values are: IgE relative to normal mice) came to 2 ± 0.6. This compound also gave an IgG2a in serum with Nc/Nga mouse (drinking water 177.5) of 148.0 ± 14.8 pg/mL. Moreover, the IgG1 in serum in the assay on Nc/Nga mouse (drinking water 242.2) worked out at 247.3 ± 10.8 pg/mL. Besides, in the assay with Nc/Nga mouse (drinking water 1572.9), the IgE in serum came out at 130.0 ± 55.3 pg/mL.
Compound `COc1ccc2c(c1)c(CC(=O)O)c(C)n2C(=O)c1ccc(Cl)cc1` [Indomethacin, indomethacin] displayed an Index of edema in assay [5] (control 7.2 ± 1.1) of 1.3 ± 0.3 mg. Further, the inhibition at 10 mg/kg in assay [5] (Mus musculus, po, read-out: Inhibition rate (%)) was 81.9%.
